Consider 7 molecules from patent publication US4760088A, “Biocidal derivatives of catechins” (Board of Control of Michigan Technological University, priority 1986, dated 1988).

Molecules are shown by their SMILES. In brackets after ≈: the same amount, converted by molar mass. Read-outs that look alike come from different tables or passages of the source.

Holding throughout (format): cell-based
One assay deals with Escherchia coli. Put plainly: Biocidal effect on bacteria, gram-negative (agar plate). The following applies: 24 h; no colonies observed; brain-heart infusion agar, 35° C., one day; max. tested 500 ppm; read-out: Minimum Inhibitory Concentration (MIC). Here is the method:
(§1) Tests were made to determine the biocidal properties of the epicatechin-4-alkylsulfides prepared in Examples 1 and 2 on different wood-rotting fungi and bacteria.
(§2) Agar plates containing the test compounds were made as above, but with brain-heart infusion agar. The plates were inoculated with a standardized suspension of bacterial cells using a calibrated 3 mm loop and incubated at 35° C. After one day (two days for Micrococcus luteus), the number of resulting bacteria cultures were counted. Streptomycin was used under the same conditions on each test organism for a comparison.

For a further assay, the system named is Klebsiella pneumoneae. The assay is described as above. The conditions noted are these: 24 h, read-out: Minimum Inhibitory Concentration (MIC). Here is the method: as §1, §2
Another assay concerns Pseudomonas aeruginosa. Described as above. The conditions noted are these: 24 h, read-out: Minimum Inhibitory Concentration (MIC). The procedure: as §1, §2
A further assay relates to Enterobacter cloacae. Described as above. The following applies: 24 h, read-out: Minimum Inhibitory Concentration (MIC). The procedure:
as §1, §2

A further assay relates to Micrococcus liteus. Put plainly: Biocidal effect on bacteria, gram-positive (agar plate). The following applies: 48 h, read-out: Minimum Inhibitory Concentration (MIC). Here is the method:
as §1, §2

The test system of another assay is Bacillus cereus. Described as above. The conditions noted are these: 24 h, read-out: Minimum Inhibitory Concentration (MIC). Here is the method: as §1, §2
For another assay, the system named is Streptococcus faciens. Described as above. The conditions noted are these: 24 h, read-out: Minimum Inhibitory Concentration (MIC). Here is the method: as §1, §2
The test system of the next assay is Lecythophora hoffmannii. Put plainly: Biocidal effect on wood-destroying fungi, soft-rotters (agar plate mycelium growth). The following applies: Coniochaeta hoffmannii; no growth observed; malt extract agar, 26° C.; max. tested 1000 ppm; read-out: Minimum Inhibitory Concentration (MIC). Here is the method:
as §1
(§3) Agar plates containing the epicatechin-4-alkylsulfide to be tested were prepared by adding one part of an ethanol solution containing a known concentration of the test compound to 99 parts of molten malt extract agar. After thorough mixing, the medium was poured into 8 cm petri dishes. When the agar had cooled and hardened, the plates were inoculated by placing in the center of the plate a 5 mm diameter plug taken from an agar plate containing an actively growing culture of the test organism and incubated at 26° C. The diameter of the mycelium formed was measured when the culture on a control plate (containing no test compound) had reached the perimeter of the petri dish, or after seven days, whichever came first. Three duplicates were run for each test compound/test organism combination.

Another assay concerns Scytalidium lignicola. Described as above. The following applies: no growth observed, malt extract agar, 26° C., max. tested 1000 ppm, read-out: Minimum Inhibitory Concentration (MIC). The procedure: as §1, §3
The subject of assay [1] is Phanerochaete chrysosporium. As to the kind of experiment: Biocidal effect on wood-destroying fungi, white-rotters (agar plate mycelium growth). The following applies: Phanerodontia chrysosporium; no growth observed; malt extract agar, 26° C.; max. tested 1000 ppm; read-out: Minimum Inhibitory Concentration (MIC). Here is the method: as §1, §3
The subject of a further assay is Coriolus versicolor. Described as above. The conditions noted are these: Trametes versicolor; no growth observed; malt extract agar, 26° C.; max. tested 1000 ppm; read-out: Minimum Inhibitory Concentration (MIC). The procedure:
as §1, §3

In the next assay the test system is gram-positive bacteria. As to the kind of experiment: Effect against gram-positive bacteria compared with streptomycin (overall statement). The conditions noted are these: versus streptomycin under the same conditions. The procedure: as §1, §2
The next assay relates to Poria placenta. Put plainly: Biocidal effect on wood-destroying fungi, brown-rotters (agar plate mycelium growth). The conditions noted are these: no growth observed; malt extract agar, 26° C.; max. tested 1000 ppm; read-out: Minimum Inhibitory Concentration (MIC). The procedure: as §1, §3
For a further assay, the system named is Geophyllum trabeum. Described as above. The conditions noted are these: no growth observed; malt extract agar, 26° C.; max. tested 1000 ppm; read-out: Minimum Inhibitory Concentration (MIC). Here is the method: as §1, §3
For the next assay, the system named is fungi. Put plainly: Fungicidal effect against a variety of fungi (overall statement). The conditions noted are these: at the concentrations tested. Here is the method: as §1, §3
A further assay has as its system Chaetomium globosom. As to the kind of experiment: Biocidal effect on wood-destroying fungi, soft-rotters (agar plate mycelium growth). The conditions noted are these: no growth observed, malt extract agar, 26° C., max. tested 1000 ppm, read-out: Minimum Inhibitory Concentration (MIC). The procedure: as §1, §3
In a further assay the test system is Pycnoporus cinnabarinus. As to the kind of experiment: Biocidal effect on wood-destroying fungi, white-rotters (agar plate mycelium growth). The following applies: Trametes cinnabarina; no growth observed; malt extract agar, 26° C.; max. tested 1000 ppm; read-out: Minimum Inhibitory Concentration (MIC). Here is the method:
as §1, §3

The test system of the next assay is Wolfiporia cocos. Put plainly: Biocidal effect on wood-destroying fungi, brown-rotters (agar plate mycelium growth). The following applies: no growth observed, malt extract agar, 26° C., max. tested 1000 ppm, read-out: Minimum Inhibitory Concentration (MIC). The procedure:
as §1, §3

In another assay the test system is bacteria. As to the kind of experiment: Bactericidal effect (overall statement). The conditions noted are these: at the concentrations tested. Here is the method:
as §1, §2

Setting [2] is: no colonies observed, brain-heart infusion agar, 35° C., one day, max. tested 500 ppm.
The mark [3] stands for this setting: no colonies observed, brain-heart infusion agar, 35° C., two days, max. tested 500 ppm.

As to `[H]/N=C(/N)N[C@H]1[C@H](O)[C@@H](O)[C@H](O[C@@H]2O[C@@H](C)[C@](O)(C=O)[C@H]2O[C@@H]2O[C@@H](CO)[C@H](O)[C@@H](O)[C@@H]2NC)[C@@H](N/C(N)=N\[H])[C@@H]1O` [Strep, Streptomycin, reference compound], the MIC amounted to 5 µg/mL (≈ 8.6 µM) in the assay on Escherchia coli; 8 µg/mL (≈ 13.8 µM) with Klebsiella pneumoneae; 50 µg/mL (≈ 86 µM) with Pseudomonas aeruginosa; 1 µg/mL (≈ 1.72 µM) with Enterobacter cloacae; 8 µg/mL (≈ 13.8 µM) in the assay with Micrococcus liteus; 20 µg/mL (≈ 34.4 µM) in the assay on Bacillus cereus. Besides, the MIC in the assay on Streptococcus faciens came out at 50 µg/mL (≈ 86 µM).

`CCCCCCCCCCSC1c2c(O)cc(O)cc2OC(c2ccc(O)c(O)c2)C1O` (stereo not shown) [C10]: the MIC turned out to be 300 µg/mL in the assay on Lecythophora hoffmannii; 8 µg/mL in the assay with Scytalidium lignicola; 50 µg/mL in assay [1]; 200 µg/mL in the assay on Coriolus versicolor; 500 µg/mL (≈ 1080 µM) with Escherchia coli; 500 µg/mL (≈ 1080 µM) with Klebsiella pneumoneae (setting [2]). The MIC with Pseudomonas aeruginosa (setting [2]) came to 300 µg/mL (≈ 648 µM); in the assay with Enterobacter cloacae (setting [2]) it was 500 µg/mL (≈ 1080 µM); with Poria placenta, 1000 µg/mL; in the assay with Geophyllum trabeum, 1000 µg/mL; in the assay on Micrococcus liteus (setting [3]) it was 5 µg/mL (≈ 10.8 µM); with Bacillus cereus (setting [2]) it was 5 µg/mL (≈ 10.8 µM). Also, in the assay on Streptococcus faciens (setting [2]), the MIC was determined as 30 µg/mL (≈ 64.8 µM). The “effectiveness against gram-positive bacteria compared with streptomycin” value in the assay with gram-positive bacteria is on record as “substantially more effective”. The fungicidal properties entry in the assay on fungi is on record as “effective fungicide”.

As for `CCCCCCCCCCCCCCCCSC1c2c(O)cc(O)cc2OC(c2ccc(O)c(O)c2)C1O` (stereo not shown) [C16], the MIC was 1000 µg/mL with Lecythophora hoffmannii; 200 µg/mL in the assay on Scytalidium lignicola; 1000 µg/mL in assay [1]; 1000 µg/mL in the assay on Coriolus versicolor; 500 µg/mL (≈ 914 µM) in the assay on Escherchia coli; 500 µg/mL (≈ 914 µM) in the assay with Klebsiella pneumoneae (setting [2]). Besides, the MIC in the assay with Pseudomonas aeruginosa (setting [2]) stood at 50 µg/mL (≈ 91.4 µM); with Enterobacter cloacae (setting [2]) it was 500 µg/mL (≈ 914 µM); in the assay with Poria placenta it was 1000 µg/mL; with Geophyllum trabeum it was 1000 µg/mL; in the assay with Micrococcus liteus (setting [3]), 75 µg/mL (≈ 137 µM); with Bacillus cereus (setting [2]) it was 75 µg/mL (≈ 137 µM). In addition, the MIC in the assay on Streptococcus faciens (setting [2]) was determined as 100 µg/mL (≈ 183 µM).

Turning to `CCCCCCCCCCCCSC1c2c(O)cc(O)cc2OC(c2ccc(O)c(O)c2)C1O` (stereo not shown) [C12], the MIC in the assay with Lecythophora hoffmannii was 1000 µg/mL; in the assay with Scytalidium lignicola it was 100 µg/mL; in the assay with Chaetomium globosom it was 1000 µg/mL; in the assay on Pycnoporus cinnabarinus it was 1000 µg/mL; in assay [1], 1000 µg/mL; in the assay with Coriolus versicolor, 1000 µg/mL. The MIC in the assay on Escherchia coli amounted to 500 µg/mL (≈ 1020 µM); in the assay with Klebsiella pneumoneae (setting [2]), 500 µg/mL (≈ 1020 µM); in the assay with Poria placenta, 1000 µg/mL; with Wolfiporia cocos, 1000 µg/mL; with Geophyllum trabeum it was 1000 µg/mL; in the assay on Micrococcus liteus (setting [3]), 50 µg/mL (≈ 102 µM). Further, the MIC was 50 µg/mL (≈ 102 µM) in the assay with Bacillus cereus (setting [2]) and 75 µg/mL (≈ 153 µM) in the assay with Streptococcus faciens (setting [2]).

On to `Oc1cc(O)c2c(c1)O[C@H](c1ccc(O)c(O)c1)[C@H](O)C2` [Epicatechin, reference compound], for which the bactericidal properties entry in the assay with bacteria was “minimal bactericidal properties”. For the same molecule, in the assay on fungi, the fungicidal properties result was “no fungicidal”.

As to `CCCCCCSC1c2c(O)cc(O)cc2OC(c2ccc(O)c(O)c2)C1O` (stereo not shown) [C6], the MIC amounted to 800 µg/mL with Lecythophora hoffmannii; 80 µg/mL in the assay with Scytalidium lignicola; 500 µg/mL in the assay with Chaetomium globosom; 500 µg/mL with Pycnoporus cinnabarinus; 250 µg/mL in assay [1]; 800 µg/mL in the assay with Coriolus versicolor. Moreover, the MIC in the assay with Escherchia coli was 300 µg/mL (≈ 738 µM); in the assay with Klebsiella pneumoneae (setting [2]) it was 500 µg/mL (≈ 1230 µM); in the assay with Pseudomonas aeruginosa (setting [2]), 500 µg/mL (≈ 1230 µM); in the assay with Enterobacter cloacae (setting [2]) it was 300 µg/mL (≈ 738 µM); in the assay on Poria placenta it was 500 µg/mL; with Wolfiporia cocos it was 500 µg/mL. In addition, the MIC in the assay with Geophyllum trabeum is 1000 µg/mL; with Micrococcus liteus (setting [3]) it was 50 µg/mL (≈ 123 µM); with Bacillus cereus (setting [2]), 80 µg/mL (≈ 197 µM); in the assay with Streptococcus faciens (setting [2]) it was 200 µg/mL (≈ 492 µM).

For the molecule `CCCCCCCCSC1c2c(O)cc(O)cc2OC(c2ccc(O)c(O)c2)C1O` (stereo not shown) [C8], the MIC with Lecythophora hoffmannii stood at 400 µg/mL; in the assay on Scytalidium lignicola, 25 µg/mL; in the assay with Chaetomium globosom it was 1000 µg/mL; in the assay on Pycnoporus cinnabarinus, 1000 µg/mL; in assay [1], 100 µg/mL; with Coriolus versicolor, 250 µg/mL. For the same molecule, the MIC in the assay on Escherchia coli came to 500 µg/mL (≈ 1150 µM); in the assay with Klebsiella pneumoneae (setting [2]), 500 µg/mL (≈ 1150 µM); in the assay with Poria placenta, 250 µg/mL; with Wolfiporia cocos, 1000 µg/mL; with Geophyllum trabeum, 1000 µg/mL; in the assay with Micrococcus liteus (setting [3]) it was 40 µg/mL (≈ 92 µM). For the same molecule, the MIC in the assay with Bacillus cereus (setting [2]) is 20 µg/mL (≈ 46 µM); with Streptococcus faciens (setting [2]), 60 µg/mL (≈ 138 µM). For the same molecule, the fungicidal properties result in the assay on fungi is “effective fungicide”.
